Experimental data taken from patent US20250032506A1, “GLUCOCORTICOID RECEPTOR BLOCKADE WITH MIFEPRISTONE TO SENSITIZE PANCREATIC CANCER TO IMMUNOTHERAPY” (BOARD OF REGENTS, THE UNIVERSITY OF TEXAS SYSTEM, priority 2021, published 2025).
Residues, ends and D or L forms follow the SMILES beside them. *: point of attachment. Cbz = O=C(OCc1ccccc1)*

B1: IFNγ: IFNγ (known to activate PD-L1 transcription) (protein, UniProt P01579 24-161, looked up)
Interferon gamma: QDPYVKEAENLKKYFNAGHSDVADNGTLFLGILKNWKEESDRKIMQSQIVSFYFKLFKNFKDDQSIQKSVETIKEDMNVKFFNSNKKKRDDFEKLTNYSVTDLNVQRKAIHELIQVMAELSPAAKTGKRKRSQMLFRG

Legend:
SU86.86 cells = assay: qPCR, immunoblotting and flow cytometry of PD-L1 and MHC-I pathway expression in SU86.86 cells; type: cell-based, human; details: immunoblotting, mifepristone 20 μM, 48 h with MG132 (10 μM, 6 h) or chloroquine (20 μM, 4 h)
Experimental: (See Bardeesy, N., et al. supra). The human PDAC cell lines SU86.86 ([…]), SW1990 ([…]), BXPC-3 ([…]), Miapaca-2 ([…]), Capan-1 ([…]), ASPC-1 ([…]), Hs766T ([…]), Colo357/FG ([…]), L3.6PL ([…]), Panc28 ([…]), Capan-2 ([…]), CF-Pac-1 ([…]), Panc3 (sex unknown), Panc1 ([…]), Panc48 (sex unknown), and HPAC ([…]) were from Mien-Chie Hung's lab stock. […] The BXPC-3, Miapaca-2, Capan-1, ASPC-1, Colo357/FG, L3.6PL, Panc28, Capan-2, CF-Pac-1, Panc3, Panc1, Panc48, and HPAC cell lines were cultured in DMEM/F-12 (Corning, 10-092-CV) supplemented with 10% FBS and 1% penicillin/streptomycin. Cells were grown in a humidified incubator with 5% CO2 at 37° C., and low-passage stocks were maintained in a centralized lab cell bank. Short tandem repeat profiling and mycoplasma tests were done by the Cytogenetics and Cell Authentication Core at MD Anderson Cancer Center.
Membranes were blocked with 10% non-fat milk in TBST and incubated with the primary antibody at 4° C. overnight, followed by incubation with the secondary antibody conjugated with horseradish peroxidase (HRP).

[1] = tested on: human PD-L1 gene promoter regions; assay: Luciferase reporter assay in SW1990 cells; type: cell-based; details: IFNγ 10 ng ml^−1, 8 h, abrogated by knockdown of GR
Description: (§1) Human PD-L1 promoter-reporter constructs (Coelho, M. A., et al. Oncogenic RAS Signaling Promotes Tumo Immunoresistance by Stabilizing PD-L1 mRNA. Immunity 47, 1083-1099 e1086 (2017)) were purchased from Addgene (Addgene numbers: 107002, 107003, 107004, 107006, and 107007). The GR activity reporter plasmid was purchased from Qiagen (ID: C82DB0D7-3D10-4B1C-A358-411558D2DE01). The promoter regions of human HLA-B, HLA-C, and B2M were PCR-amplified from genomic DNA of the SU86.86 cell line (PCR primers are listed as SEQ ID NOs.: 1-6. The linearized pGL3-basic plasmid was amplified by PCR (Forward primer SEQ ID NO: 7; reverse primer SEQ ID NO: 8), and PCR products of promoter regions were ligated to linearized pGL3-basic using the In-Fusion HD Cloning Kit (Takara Bio, 638909).
(§2) The firefly luciferase reporter containing the human gene promoter was co-transfected with a Renilla luciferase vector (for normalization) into SU86.86 cells using jetPRIME transfection reagent (VWR, 89129-922). […] Firefly and Renilla luciferase activities were measured using a Dual-Luciferase Reporter Assay (Promega, E1910) on a microplate reader according to the manufacturer's protocol. Firefly luciferase activity was normalized to Renilla luciferase activity.

[2] = tested on: human PD-L1, HLA-B, HLA-C, and B2M gene promoter regions; assay: Luciferase reporter assay in SU86.86 cells; type: cell-based; details: IFNγ 10 ng ml^−1, 8 h, abrogated by knockdown of GR
Description: as §1, §2

Molecule	effect on mifepristone-mediated PD-L1 downregulation and MHC-I upregulation (SU86.86 cells)	activity of the PD-L1 promoter reporters [1]	activity of the PD-L1 promoter reporters [2]
CC(C)C[C@@H](C=O)NC(=O)[C@H](CC(C)C)NC(=O)[C@H](CC(C)C)NC(=O)OCc1ccccc1 [MG132] (Cbz-Leu-Leu-Leu-aldehyde)	did not affect		
CCN(CC)CCCC(C)Nc1ccnc2cc(Cl)ccc12 (stereo not shown) [chloroquine]	did not affect		
B1		induced	induced
